{"source": "patent US11427604B2", "about": "(Mindset Pharma Inc., priority 2020, dated 2022)", "key": {"[1]": {"biological_target": "human 5-HT2A receptor (Homo sapiens (Human), UniProt P28223)", "test": "Radioligand binding assay ([3H]-ketanserin) on human 5-HT2A receptor", "protocol": "i. Prepare the assay buffer following the table below;\nii. Preparation of 8 doses of reference and test compounds starting from 10 mM stock solution as requested by 5-fold serial dilutions with 100%;\niii. […] a. Add 50 μl/well of 0.5% (v/v) PEI to UniFilter-96 GF/B plates. Seal the plates and incubate at 4° C. for 3 hrs; b. After incubation, wash the plates 3 times with ice-cold wash buffer (50 mM Tris, pH7.4);\niv. Preparation of assay plates: a. Dilute cell membrane with assay buffer and add 330 μl/well to 96 round deep well plates to reach a concentration of 20 μg/well; b. Prepare 8 concentrations of reference or exemplary compounds of the application and add 110 μl/well to 96 round deep well plates; c. Dilute [3H]-ketanserin with assay buffer to 5 nM (5× final concentration) and add 110 μl/well to 96 round deep well plates.\nv. Centrifuge the plate at 1000 rpm for 30 secs and then agitate at 600 rpm, R.T. for 5 min.\nvi. Seal the plates and incubate the plate at 27° C. for 90 min.\nvii. Stop the incubation by vacuum filtration onto GF/B filter plates followed by 4 times washing with ice-cold wash buffer (50 mM Tris, pH7.4).\nix. Seal the filter plates and add 40 μl/well of scintillation cocktail.\nx. Read the plate by using a Microbeta2 microplate counter.\nFor reference and exemplary test compounds of the application, the results are expressed as % Inhibition, using the normalization equation: N=100−100×(U−C2)/(C1−C2), where U is the unknown value, C1 is the average of high controls, and C2 is the average of low controls. The IC50 is determined by fitting percentage of inhibition as a function of compound concentrations with Hill equation using XLfit."}, "[2]": {"biological_target": "human 5-HT2A (h5-HT2A) receptor (Homo sapiens (Human), UniProt P28223)", "test": "FLIPR assay, human 5-HT2A receptor under agonist mode", "assay_type": "cell-based", "protocol": "I. Assessment of the Activated Effect of Compounds of Formula I Targeting on Human 5-HT2A (h5-HT2A) Receptor Under Agonist Mode\n1. Culture the cells in cell culture medium (DMEM containing 10% FBS, 1× penicillin-streptomycin 300 μg/ml G418 and 100 μg/ml hygromycin B) at 37° C., 5% (v/v) CO2.\n2. One day before the assays, detach the cell using TrypLE™ Express and count cells using cell counter.\n3. Seed 20000 cells/well in 30 μl/well culture medium to a 384-well cell plate and incubate the cells overnight at 37° C., 5% (v/v) C02.\n4. On the assay day, prepare 2× dye solution following the manual of the FLIPR® Calcium 6 Assay Kit: i. Dilute the dye with assay buffer (20 mM HEPES in 1×HBSS, PH7.4); ii. Add probenecid to the final concentration of 5 mM; iii. Vortex vigorously for 1-2 minutes.\n5. Remove medium from cell plate by flicking the cell plate on towel papers.\n6. Add 10 μl of assay buffer and 10 μl of 2× dye solution to each well of the cell plate.\n7. Put the cell plate on plate shaker, agitate the plate at 600 rpm for 2 minutes. Incubate the plate at 37° C. for 2 hours followed by additional 15-minute incubation at 25° C.\n8. Prepare 3× compound in assay buffer: a. Dilute reference compounds to required concentration with DMSO. Add the compounds to a 384-well compound plate; b. Perform serial dilutions; c. Add 10 mM test compounds to the compound plate, perform 3-fold serial dilutions. d. […] Add 20 μl/well assay buffer to the compound plate; f. Mix the plate on plate shaker for 2 mins;\ni. The normalized fluorescence reading (RFU) is calculated as shown follow, while Fmax and Fmin stand for maximum and minimum of calcium signal during defined time window: RFU=Fmax−Fmin\nii. Calculate the percentage activation by using following equation: […]\niii. Calculate EC50 by fitting % activation against log of compound concentrations with Hill equation using XLfit."}, "[3]": {"test": "Rat liver microsomes stability with NADPH"}, "[4]": {"test": "Mouse liver microsomes stability with NADPH", "protocol": "(§1) The objective of this study was to estimate in vitro metabolic stability of 1-45 in pooled human and male mouse liver microsomes. The concentrations of exemplary compounds in reaction systems were evaluated by LC-MS/MS for estimating the stability in pooled human and male mouse liver microsomes. The in vitro intrinsic clearances of test compounds were determined as well.\n(§2) A master solution in the “Incubation Plate” containing phosphate buffer, ultra-pure H2O, MgCl2 solution and liver microsomes was made according to Table --. The mixture was pre-warmed at 37° C. water bath for 5 minutes.\n(§3) 40 μL of 10 mM NADPH solution was added to each well. The final concentration of NADPH was 1 mM. The negative control samples were prepared by replacing NADPH with 40 μL of ultra-pure H2O. Samples were prepared in duplicate. Negative controls were prepared in singlet.\n(§4) The reaction was started with the addition of 4 μL of 200 μM test compounds or control compounds to each master solution to get the final concentration of 2 μM. This study was performed in duplicate.\n(§5) Aliquots of 50 μL were taken from the reaction solution at 0, 15, 30, 45 and 60 minutes. The reaction solutions were stopped by the addition of 4 volumes of cold methanol with IS (100 nM alprazolam, 200 nM imipramine, 200 nM labetalol and 2 μM ketoprofen). Samples were centrifuged at 3,220 g for 40 minutes. Aliquot of 90 μL of the supernatant was mixed with 90 μL of ultra-pure H2O and then was used for LC-MS/MS analysis.\n(§6) LC/MS analysis was performed for all samples from this study using a Shimadzu liquid chromatograph separation system equipped with degasser DGU-20A5R; solvent delivery unit LC-30AD; system controller SIL-30AC; column oven CTO-30A; CTC Analytics HTC PAL System. Mass spectrometric analysis was performed using an Triple Quad™ 5500 instrument.\n(§7) All calculations were carried out using Microsoft Excel. Peak area ratios of test compound to internal standard (listed in the below table) were determined from extracted ion chromatograms.\n(§8) All calculations were carried out using Microsoft Excel. Peak areas were determined from extracted ion chromatograms. The slope value, k, was determined by linear regression of the natural logarithm of the remaining percentage of the parent drug vs. incubation time curve.\n(§9) Conversion of the in vitro t1/2 (min) into the in vitro intrinsic clearance (in vitro CLint, in μL/min/mg proteins) was done using the following equation (mean of duplicate determinations):\n(§10) [formula] […] Results & Discussion"}, "[5]": {"test": "Human liver microsomes stability with NADPH", "protocol": "as §1, §2, §3, §4, §5, §6, §7, §8, §9, §10"}, "[6]": {"settings": "cited from earlier work"}}, "note": "Where two headings read alike, the source gives them in different places.", "data": [{"smiles": "[2H]C([2H])([2H])N(C([2H])([2H])[2H])C([2H])([2H])C([2H])([2H])c1c[nH]c2cccc(OP(=O)(O)O)c12", "note": "[Compound I-3, 3-(2-(bis(methyl-d3)amino)ethyl-1,1,2,2-d4)-1H-indol-4-yl dihydrogen phosphate]", "values": [{"measurement": "IC50", "setting": "[1]", "value": "500 to 5000", "unit": "nM"}, {"measurement": "EC50", "setting": "[2]", "value": "1000 to 10000", "unit": "nM"}]}, {"smiles": "[2H]C([2H])([2H])N(C([2H])([2H])[2H])C([2H])([2H])C([2H])([2H])c1c[nH]c2cccc(F)c12", "note": "[Compound I-43, 2-(4-fluoro-1H-indol-3-yl)-N,N-bis(methyl-d3)ethan-1-amine-1,1,2,2-d4]", "values": [{"measurement": "IC50", "setting": "[1]", "value": "< 500", "unit": "nM"}, {"measurement": "EC50", "setting": "[2]", "value": "< 1000", "unit": "nM"}]}, {"smiles": "[2H]C([2H])([2H])N(C([2H])([2H])[2H])C([2H])([2H])C([2H])([2H])c1c[nH]c2cccc(OC)c12", "note": "[Compound I-44, 2-(4-methoxy-1H-indol-3-yl)-N,N-bis(methyl-d3)ethan-1-amine-1,1,2,2-d4]", "values": [{"measurement": "IC50", "setting": "[1]", "value": "< 500", "unit": "nM"}, {"measurement": "EC50", "setting": "[2]", "value": "< 1000", "unit": "nM"}]}, {"smiles": "CN(C)CCc1c[nH]c2cccc(O)c12", "note": "[Psilocin, 4-hydroxy-N,N-dimethyltryptamine, reference compound]", "values": [{"measurement": "Remaining Percentage (%) after 60 min", "setting": "[3]; Rat, with NADPH, 2 μM", "value": 62.68, "unit": "%"}, {"measurement": "half-life at 2 μM", "setting": "[3]; rat, microsomes", "value": 1.48, "unit": "h"}, {"measurement": "microsomal CLint at 2 μM", "setting": "[3]; rat, microsomes", "value": 15.6, "unit": "µL/min/mg"}, {"measurement": "Remaining Percentage (%) after 60 min", "setting": "[4]; Mouse, with NADPH, 2 μM", "value": 96.89, "unit": "%"}, {"measurement": "half-life at 2 μM", "setting": "[4]; male, mouse, microsomes", "value": 2.36, "unit": "h"}, {"measurement": "microsomal CLint at 2 μM", "setting": "[4]; male, mouse, microsomes", "value": 9.78, "unit": "µL/min/mg"}, {"measurement": "Remaining Percentage (%) after 60 min", "setting": "[5]; Human, with NADPH, 2 μM", "value": 70.16, "unit": "%"}, {"measurement": "half-life at 2 μM", "setting": "[5]; human, microsomes", "value": 1.96, "unit": "h"}, {"measurement": "microsomal CLint at 2 μM", "setting": "[5]; human, microsomes", "value": 11.8, "unit": "µL/min/mg"}]}, {"smiles": "CN(C)CCc1c[nH]c2cccc(OP(=O)(O)O)c12", "note": "[psilocybin, 4-phosphoryloxy-N,N-dimethyltrypatmine]", "values": [{"measurement": "abstinence rate", "setting": "[6]; 12 months follow-up", "value": 67, "unit": "%"}, {"measurement": "abstinence rate", "setting": "[6]; six months follow-up", "value": 80, "unit": "%"}]}]}
